Where only a bound is given, the exact number is not on record here.

In the assay the target is GLP1R (Homo sapiens, UniProt P43220). Put plainly: GLP1R cAMP HTRF assay, HEK293/GLP-1R/CRE/Luc (HEK293T cells). Format: cell-based. The following applies: read-out: EC50. In outline: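 cAMP accumulation via HTRF after 30 min, 37 °C exposure of 1000 receptor-expressing cells/well to compound (0.5% DMSO final) in IBMX (500 μM)/0.1% BSA DPBS.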
Chain of GLP1R (P43220 24-463): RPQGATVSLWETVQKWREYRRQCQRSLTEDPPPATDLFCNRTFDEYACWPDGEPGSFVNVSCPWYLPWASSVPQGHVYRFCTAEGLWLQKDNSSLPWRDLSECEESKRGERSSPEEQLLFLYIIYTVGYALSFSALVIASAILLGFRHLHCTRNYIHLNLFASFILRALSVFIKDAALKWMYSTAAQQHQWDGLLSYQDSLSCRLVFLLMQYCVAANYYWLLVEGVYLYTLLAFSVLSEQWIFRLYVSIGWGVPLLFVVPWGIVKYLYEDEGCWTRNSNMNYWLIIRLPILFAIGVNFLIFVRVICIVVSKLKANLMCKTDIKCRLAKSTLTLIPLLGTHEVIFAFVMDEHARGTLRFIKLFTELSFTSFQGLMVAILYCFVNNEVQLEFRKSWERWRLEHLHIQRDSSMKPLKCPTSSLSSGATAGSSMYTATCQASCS

Regarding `O=C(O)c1ccc2nc(CN3CC=C(c4cc5nc[nH]c5c(OCc5ccc(Cl)cc5F)n4)CC3)n(C[C@@H]3CCO3)c2c1` [Compound 58, (S)-2-((4-(4-((4-chloro-2-fluorobenzyl)oxy)-3H-imidazo[4,5-c]pyridin-6-yl)-3,6-dihydropyridin-1(2H)-yl)methyl)-1-(oxetan-2-ylmethyl)-1H-benzo[d]imidazole-6-carboxylic acid], the EC50 is > 1000 nM.

With `Cc1ncccc1COc1cccc(C2=CCN(Cc3nc4ccc(C(=O)O)cc4n3C[C@@H]3CCO3)CC2)n1` [Compound 161, (S)-2-((6-((2-methylpyridin-3-yl)methoxy)-3′,6′-dihydro-[2,4′-bipyridin]-1′(2′ H)-yl)methyl)-1-(oxetan-2-ylmethyl)-1H-benzo[d]imidazole-6-carboxylic acid], the EC50 is ≤ 150 nM.

`O=C(O)c1ccc2nc(CN3CC=C(c4ccc5c(n4)N(CCc4cccc(Cl)c4)CCO5)CC3)n(C[C@@H]3CCO3)c2c1` [Compound 37, (S)-2-((4-(4-(3-chlorophenethyl)-3,4-dihydro-2 h-pyrido[3,2-b][1,4]oxazin-6-yl)-5,6-dihydropyridin-1(2H)-yl)methyl)-1-(oxetan-2-ylmethyl)-1 h-benzo[d]imidazole-6-carboxylic acid]: the EC50 is > 1000 nM.

Consider `O=C(O)c1ccc2nc(CN3CC=C(c4cccc(OCc5ncc(C(F)(F)F)cc5F)n4)CC3)n(C[C@@H]3CCO3)c2c1` [Compound 149, (S)-2-((6-((3-fluoro-5-(trifluoromethyl)pyridin-2-yl)methoxy)-3′,6′-dihydro-[2H′-bipyridin]-1′(2′II)-yl)methyl)-1-(oxetan-2-ylmethyl)-1H-benzo[d]imidazole-6-carboxylic acid], for which the EC50 is ≤ 15 nM.

Consider `O=C(O)c1ccc2nc(CN3CCN(c4ccc5c(n4)N(Cc4ccc(Cl)cc4F)CCO5)CC3)n(C[C@@H]3CCO3)c2c1` [Compound 4, (S)-2-((4-(4-(4-chloro-2-fluorobenzyl)-3H-dihydro-2H-pyrido[3,2-b][1H]oxazin-6-yl)piperazin-1-yl)methyl)-1-(oxetan-2-ylmethyl)-1H-benzo[d]imidazole-6-carboxylic acid], for which the EC50 was > 1000 nM.

Turning to `O=C(O)c1ccc2nc(CN3CC=C(c4nc(OCc5ccc(Cl)cc5F)c(F)cc4F)CC3)n(C[C@@H]3CCO3)c2c1` [Compound 131, (S)-2-((4-(6-(4-chloro-2-fluorobenzyloxy)-3,5-difluoropyridin-2-yl)-5,6-dihydropyridin-1(2H)-yl)methyl)-1-(oxetan-2-ylmethyl)-1H-benzo[d]imidazole-6-carboxylic add], the EC50 is ≤ 15 nM.

Turning to `O=C(O)c1ccc2nc(CN3CC=C(c4cccc(OCc5ccc(F)c(F)c5)n4)CC3)n(C[C@@H]3CCO3)c2c1` [Compound 145, (S)-2-((6((3,4-difluorobenzyl)oxy)-3′,6′-dihydro-[2,4′-bipyridin]-1′(2′H)-yl)methyl)-1-(oxetan-2-ylmethyl)-1H-benzo[d]imidazole-6-carboxylic acid], the EC50 was ≤ 15 nM.

Turning to `N#Cc1ccc(COc2cccc(N3CCC(Cc4nc5ccc(C(=O)O)nc5n4C[C@@H]4CCO4)CC3)n2)nc1` [Compound 231, (S)-2-((l-(6-((5-cyanopyridin-2-yl)methoxy)pyridin-2-yl)piperidin-4-yl)methyl)-3-(oxetan-2-ylmethyl)-3H-imidazo[4,5-b]pyridine-5-carboxylic acid], the EC50 was ≤ 150 nM.

As to `O=C(O)c1ccc2nc(CN3CC=C(c4ccc5c(n4)N(Cc4ccc(Cl)cc4F)CCCO5)CC3)n(C[C@@H]3CCO3)c2c1` [Compound 59, (S)-2-((4-(5-(4-chloro-2-fluorobenzyl)-2,3,4,5-tetrahydropyrido[3,2-b][1,4]oxazepin-7-yl)-3,6-dihydropyridin-1(2H)-yl)methyl)-1-(oxetan-2-ylmethyl)-1H-benzo[d]imidazole-6-carboxylic add], the EC50 was > 1000 nM.

Regarding `O=C(O)c1ccc2nc(CN3CC=C(c4cccc(OCc5cccnc5)n4)CC3)n(C[C@@H]3CCO3)c2c1` [Compound 158], the EC50 is ≤ 150 nM.

With `Cn1c(CN2CCN(c3cccc(OCc4ccc(Cl)cc4F)n3)CC2)cc2ccc(C(=O)O)cc21` [Compound 50, 2-((4-(6-(4-chloro-2-fluorobenzyloxy)pyridin-2-yl)piperazin-1-yl)methyl)-1-methyl-1 h-indole-6-carboxylic add], the EC50 is > 1000 nM.

With `O=C(O)c1ccc2nc(CN3CC=C(c4ncc(F)c(OCc5ccc(Cl)cc5F)n4)CC3)n(C[C@@H]3CCO3)c2c1` [Compound 123], the EC50 is ≤ 15 nM.

As to `O=C(O)c1ccc2nc(CN3CC=C(c4ccc5c(n4)N(Cc4ccc(Cl)cc4F)C(=O)CO5)CC3)n(C[C@@H]3CCO3)c2c1` [Compound 38, (S)-2-((4-(4-(4-chloro-2-fluorobenzyl)-3-oxo-3,4-dihydro-2 h-pyrido[3,2-b][1,4]oxazin-6-yl)-5,6-dihydropyridin-1(2H)-yl)methyl)-1-(oxetan-2-ylmethyl)-1 h-benzo[d]imidazole-6-carboxylic add], the concentration giving a half-maximal response (EC50) was ≤ 1000 nM.

For the molecule `O=C(O)c1ccc2nc(CC3CCN(c4cccc(OCc5ccc(Cl)cn5)n4)CC3)n(C[C@@H]3CCO3)c2c1F` [Compound 232, (S)-2-((l-(6-((5-chloropyridin-2-yl)methoxy)pyridin-2-yl)piperidin-4-yl)methyl)-7-fluoro-1-(oxetan-2-ylmethyl)-1H-benzo[d]imidazole-6-carboxylic acid], the EC50 is ≤ 150 nM.

As for `CN(Cc1ccc(Cl)cc1F)c1cccc(N2CCN(Cc3nc4ccc(C(=O)O)cc4n3C[C@@H]3CCO3)CC2)n1` [Compound 2, (S)-2-((4-(6-((4-chloro-2-fluorobenzyl)(methyl)amino)pyridin-2-yl)piperazin-1-yl)methyl)-1-(oxetan-2-ylmethyl)-1 h-benzo[d]imidazole-6-carboxylic acid], the concentration giving a half-maximal response (EC50) is > 1000 nM.

For `O=C(O)c1ccc2nc(CN3CC=C(c4cccc(OCc5ccc(Cl)cc5F)n4)CC3)n(C[C@@H]3CCO3)c2c1F` [Compound 171, (S)-2-((6-((4-chloro-2-fluorobenzyl)oxy)-3′,6′-dihydro-[2,4′-bipyridin]-1′(2′H)-yl)methyl)-7-fluoro-1-(oxetan-2-ylmethyl)-1H-benzo[d]imidazole-6-carboxylic acid], the concentration for a half-maximal effect (EC50) is ≤ 15 nM.

For the molecule `O=C(O)c1ccc2nc(CN3CC=C(c4nccc(OCc5ccc(Cl)cc5F)n4)CC3)n(C[C@@H]3CCO3)c2c1` [Compound 33, (S)-2-((4-(4-(4-chloro-2-fluorobenzyloxy)pyrimidin-2-yl)-5,6-dihydropyridin-1(2H)-yl)methyl)-1-(oxetan-2-ylmethyl)-1 h-benzo[d]imidazole-6-carboxylic acid], the EC50 was ≤ 15 nM.

As to `O=C(O)c1ccc2nc(CN3CCC(c4ccc5ccn(Cc6ccc(Cl)cc6F)c5c4)CC3)n(C[C@@H]3CCO3)c2c1` [Compound 26, (S)-2-((4-(1-(4-chloro-2-fluorobenzyl)-1 h-indol-6-yl)piperidin-1-yl)methyl)-1-(oxetan-2-ylmethyl)-1 h-benzo[d]imidazole-6-carboxylic acid], the EC50 is > 1000 nM.

For `O=C(O)c1ccc2nc(CN3CC=C(c4cccc(OCc5ccccc5Cl)n4)CC3)n(C[C@@H]3CCO3)c2c1` [Compound 136, (S)-2-((6-((2-chlorobenzyl)oxy)-3′,6′-dihydro-[2,4′-bipyridin]-1′(2′H)-yl)methyl)-1-(oxetan-2-ylmethyl)-1H-benzo[d]imidazole-6-carboxylic acid], the EC50 is ≤ 15 nM.

As for `O=C(O)c1ccc2nc(CN3CC=C(c4cccc(OCc5ccc(C#CC6CC6)cc5F)n4)CC3)n(C[C@@H]3CCO3)c2c1` [Compound 108, (S)-2-((6-((4-(cyclopropylethynyl)-2-fluorobenzyl)oxy)-3′,6′-dihydro-[2,4′-bipyridin]-1′(2′H)-yl)methyl)-1-(oxetan-2-ylmethyl)-1H-benzo[d]imidazole-6-carboxylic acid], the EC50 was ≤ 15 nM.

On to `N#Cc1ccc(COc2cccc(N3CCN(Cc4nc5ccc(C(=O)O)cc5n4C[C@@H]4CCO4)CC3)c2)c(F)c1` [Compound 193, (S)-2-((4-(3-(4-cyano-2-fluorobenzyloxy)phenyl)piperazin-1-yl)methyl)-1-(oxetan-2-ylmethyl)-1H-benzo[d]imidazole-6-carboxylic acid], for which the EC50 was ≤ 150 nM.

For the molecule `O=C(O)c1ccc2nc(CN3CC=C(c4cccc(OCc5ccc(F)cc5)n4)CC3)n(C[C@@H]3CCO3)c2c1` [Compound 157, (S)-2-((6-((4-fluorobenzyl)oxy)-3′,6′-dihydro-[2H′-bipyridin]-1′(2′H)-yl)methyl)-1-(oxetan-2-ylmethyl)-1H-benzo[d]imidazole-6-carboxylic acid], the EC50 is ≤ 15 nM.

Consider `O=C(O)c1ccc2nc(CN3CC=C(c4ncc(F)c(OCc5ccc(C#CC6CC6)cc5F)n4)CC3)n(C[C@@H]3CCO3)c2c1` [Compound 209, (S)-2-((4-(4-((4-(cyclopropylethynyl)-2-fluorobenzyl)oxy)-5-fluoropyrimidin-2-yl)-3,6-dihydropyridin-1(2H)-yl)methyl)-1-(oxetan-2-ylmethyl)-1H-benzo[d]imidazole-6-carboxylic add], for which the EC50 is ≤ 15 nM.

For the molecule `O=C(O)c1ccc2nc(CN3CC=C(c4cccc(OCc5ccc6c(c5)OC(F)(F)O6)n4)CC3)n(C[C@@H]3CCO3)c2c1` [Compound 153, (S)-2-((6-((2,2-difluorobenzo[d][1,3]dioxol-5-yl)methoxy)-3′,6′-dihydro-[2,4′-bipyridin]-1′(2′H)-yl)methyl)-1-(oxetan-2-ylmethyl)-1H-benzo[d]imidazole-6-carboxylic acid], the half-maximal effective concentration (EC50) is ≤ 15 nM.

Consider “(S)-2-((4-(2-((4-(cyclopropylethynyl)-2-fluorobenzyl)oxy)pyrimidin-4-yl)piperazin-1-yl)methyl)-1-(oxetan-2-ylmethyl)-1H-benzo[d]imidazole-6-carboxylic add [Compound 194]”, for which the EC50 is ≤ 150 nM.

On to `CC(c1ncco1)n1c(CN2CC=C(c3cccc(OCc4ccc(Cl)cc4F)n3)CC2)nc2ccc(C(=O)O)cc21` (centres unmarked) [Compound 112, 2-((6-((4-chloro-2-fluorobenzyl)oxy)-3′,6′-dihydro-[2,4′-bipyridin]-1′(2′H)-yl)methyl)-1-(1-(oxazol-2-yl)ethyl)-1H-benzo[d]imidazole-6-carboxylic acid], for which the EC50 was ≤ 1000 nM.

Values taken from patent publication US10844049B2, “GLP-1R agonists and uses thereof” (QILU REGOR THERAPEUTICS INC., priority 2018, dated 2020).
